Results on 5 compounds are retold here after US9545410B2, “Tyrosine kinase inhibitors as anti-kinetoplastid agents” (UNIVERSITY OF GEORGIA RESEARCH FOUNDATION, INC., priority 2006, dated 2017).

Data set [1] deals with blood stream T. brucei strain 427. Briefly: Cultured bloodstream T. brucei growth/viability, parasites counted with a haemocytometer. The data set is classed as cell-based, Trypanosoma brucei. The conditions noted are these: for concentration at which all parasites were killed / no parasites survived: blood stream T. brucei strain 427, 37° C. for 40 hours. Here is the method:
Cultured trypanosomes (seeded at 10^4/ml) in 100 μl of a 96-well plate received varying amounts of Tyrphostin A47 (Sigma). Parasites were counted with a haemocytometer after 48 hours in culture. Data are means of triplicate determinations, they are representative of three independent trials. Blood stream form of T. brucei were used for these studies since that stage of the parasite causes disease in humans. Inhibitory concentration 50 (IC50) is the drug concentration which reduces the growth rate by 50%. Minimum inhibitory concentration (MIC) is the lowest concentration which killed all the parasites.
T. brucei strain 427 was cultured axenically and seeded at 10^4 cells/ml in 200 μl of medium a 96-well plate. Tyrphostin AG1478 (Sigma) (Zhu et al., 2001, Cancer Lett; 169:27-32; Shushan et al., 2004, Hum Reprod; 19:1957-1967) was added to the stated final concentrations, cells were incubated at 37° C. for 40 hours, and parasites were counted with a haemocytometer. Data are mean values representative of two independent trials each of which was performed in triplicate. T. brucei replicates every 8-10 hours.
The 4-anilinoquinazoline canertinib (also referred to as C1-1033) is an inhibitor of EGFR kinase (Dewji, 2004, J Chemotherapy; 16(Suppl 4):44-48; Hamid, 2004, J Am Pharm Assoc; 44:52-58). To test the trypanocidal activity of canertinib, culture of blood stream T. brucei strain 427 was initiated in 24-well plates at 10^4 cells/ml (in 500 μl of medium (Hirumi and Hirumi, 1991, Parasitology; 102(Pt 2):225-236)). Canertinib (Heymach et al., 2006, Clin Cancer Res; 12:4441s) (provided by Pfizer) was added to the stated final concentrations, and cells were incubated at 37° C. for 40 hours. Control cells received an equal volume of solvent (DMSO). Parasites were counted with a haemocytometer. Data plotted are mean values of quadruplicate determinations from one of three independent trials that produced similar results.
This example also determined that erlotinib (TARCEVA), a 4-anilinoquinazoline tyrosine kinase inhibitor is trypanocidal. erlotinib (TARCEVA), like canertinib, is an inhibitor of EGFR kinase (Bulgaru et al., 2003, Expert Rev Anticancer Ther; 3(3):269-79; Akita and Sliwkowski, 2003, Semin Oncol; 30(3 Suppl 7):15-24). The culture of blood stream T. brucei strain 427 was initiated in 24-well plates at 10^4 cells/ml in 500 μl of medium (Hirumi and Hirumi, 1991, Parasitology; 102 Pt 2:225-236). Erlotinib (TARCEVA) (provided by Genentech/OSI), was added to the stated final concentrations shown in FIG. 4, and cells were incubated at 37° C. for 40 hours.
This example presents data showing sunitinib and axitinib (both provided by Pfizer) are trypanocidal. Sunitinib (also known as SU11248 and marketed under the trade name SUTENT) inhibits VEGFR, PDGF, and c-Kit kinases (reviewed in Steeghs et al., 2007, Ann Surg Oncol; 14(2):942-53) and is approved by the Food and Drug Administration for treatment of renal cell carcinoma. […] Therefore, this example tests whether sunitinib (SUTENT) compromised T. brucei viability. To blood stream form T. brucei 427 (seeded at 10^4 cells/ml in 500 μl of medium) sunitinib (SUTENT) (Abrams et al., 2003, Mol Cancer Ther; 2:471-478; Mendel et al., 2003, Clin Cancer Res; 9:327-337) was added to the stated final concentrations and cells were incubated at 37° C. for 40 hours. Parasites were counted with a haemocytometer. Data plotted are mean values of quadruplicate determinations from a representative experiment.

For data set [2] the following is noted: cited from earlier work.
The mark [3] stands for this setting: Trypanosoma brucei, blood stream T. brucei strain 427 seeded at 10^4 cells/ml, 37° C. for 40 hours, read-out: IC50.

SMILES strings stand for the structures. Read-outs that look alike come from different tables or passages of the source.

Take `CCN(CC)CCNC(=O)c1c(C)[nH]c(/C=C2\C(=O)Nc3ccc(F)cc32)c1C` [SUTENT, N-[2-(diethylamino)ethyl]-5-[(Z)-(5-fluoro-1,2-dihydro-2-oxo-3H-indol-3-ylidine)methyl]-2,4-dimethyl-1H-pyrrole-3-carboxamide]: the “trypanocidal effect on T. brucei (in words)” value in data set [1] (blood stream form T. brucei 427, 37° C. for 40 hours) is “kills T. brucei at low micromolar levels”.
In the case of `N#C/C(=C\c1ccc(O)c(O)c1)C(N)=S` [Tyrphostin A47], the IC50 in data set [1] (blood stream form T. brucei seeded at 10^4/ml, 96-well plate, counted after 48 hours, read-out: IC50 (drug concentration which reduces the growth rate by 50%)) lay in the range of 1000 to 5000 nM.
Consider `COc1cc2ncnc(Nc3cccc(Cl)c3)c2cc1OC` [Tyrphostin AG1478], for which, in data set [1] (blood stream T. brucei strain 427 seeded at 10^4 cells/ml, 37° C. for 40 hours, read-out: IC50), the IC50 fell in the range of 2500 to 5000 nM.
As to `C=CC(=O)Nc1cc2c(Nc3ccc(F)c(Cl)c3)ncnc2cc1OCCCN1CCOCC1` [canertinib, N-[−4-[(3-chloro-4-fluorophenyl)amino]-7-[3-(4-morpholinyl)propoxy]-6-quinazolinyl]-2-propenamide], the IC50 in data set [1] (setting [3]) turned out to be 1000 nM. Also, the “concentration at which all parasites were killed / no parasites survived” value in data set [1] was “Above 4 μM”.
Regarding `C#Cc1cccc(Nc2ncnc3cc(OCCOC)c(OCCOC)cc23)c1` [erlotinib, N-(3-ethynylphenyl)-6,7-bis(2-methoxyethoxy)quinazolin-4-amine], the plasma concentration in data set [2] (human patients receiving a cycle of 150 mg/day) is 60 µM; in data set [2] (single dose), 2 µM. Further, the IC50 in data set [1] (setting [3]) is roughly 1700 nM. Further, in data set [1], the “concentration at which all parasites were killed / no parasites survived” value stood at 10 µM.
